Measurements as given in the supplement of paper PMC10307832.

How the values were obtained:
Test in all cases: relative viability (nuclei count vs DMSO), 5 days (fraction); higher = more cells survive
[1] = compound: CC(O)(CS(=O)(=O)c1ccc(F)cc1)C(=O)Nc1ccc(C#N)c(C(F)(F)F)c1 [Bicalutamide] + Cc1cc(Nc2cc(N3CCN(C)CC3)nc(Sc3ccc(NC(=O)C4CC4)cc3)n2)n[nH]1 [Tozasertib] (partner 0.1 µM)
In short: (§1)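 Dosing by pin tool came one day after lung cancer cell lines were seeded in 1536-well plates, using either one drug or a fixed anchor-drug dose plus five library-drug doses (not always all listed) in √10 steps. After 5 days, nuclei were counted on 4× images. Relative viability is treated-well nuclei count divided by vehicle-well nuclei count, and values are medians of duplicate plates.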

[2] = compound: C(C(=O)C(=O)O)Br [Bromopyruvate] + CS(=O)(=O)CCNCc1ccc(-c2ccc3ncnc(Nc4ccc(OCc5cccc(F)c5)c(Cl)c4)c3c2)o1 [Lapatinib] (partner 2 µM)
In short: as §1

[3] = compound: CC(O)(CS(=O)(=O)c1ccc(F)cc1)C(=O)Nc1ccc(C#N)c(C(F)(F)F)c1 [Bicalutamide] + Nc1ncn([C@H]2C[C@H](O)[C@@H](CO)O2)c(=O)n1 [Decitabine] (partner 2 µM)
In short: as §1

Bromopyruvate + Olaparib = compound: C(C(=O)C(=O)O)Br [Bromopyruvate] + O=C(c1cc(Cc2n[nH]c(=O)c3ccccc23)ccc1F)N1CCN(C(=O)C2CC2)CC1 [Olaparib] (partner 8 µM)
In short: as §1

Cell Line	relative viability ([1]; first compound 0.08 µM)	relative viability ([1]; first compound 0.253 µM)	relative viability ([1]; first compound 0.8 µM)	relative viability ([1]; first compound 2.53 µM)	relative viability ([2]; first compound 1 µM)	relative viability ([2]; first compound 3.162 µM)	relative viability ([2]; first compound 10 µM)	relative viability ([2]; first compound 31.62 µM)	relative viability ([2]; first compound 100 µM)	relative viability ([3]; first compound 0.08 µM)	relative viability ([3]; first compound 0.253 µM)	relative viability ([3]; first compound 0.8 µM)	relative viability ([3]; first compound 2.53 µM)	relative viability (Bromopyruvate + Olaparib; first compound 1 µM)	relative viability (Bromopyruvate + Olaparib; first compound 3.162 µM)	relative viability (Bromopyruvate + Olaparib; first compound 10 µM)	relative viability (Bromopyruvate + Olaparib; first compound 31.62 µM)	relative viability (Bromopyruvate + Olaparib; first compound 100 µM)
HCC-827	0.403	0.341	0.402	0.402	0.205	0.191	0.167	0.193	0.214	0.337	0.252	0.384	0.351	0.757	0.706	0.732	0.616	0.588
HOP-62	0.419	0.402	0.425	0.34	1.04	1.02	–	1.02	1.02	0.25	0.2	0.241	0.221	0.373	0.432	0.798	0.525	0.157
IA-LM	–	–	–	–	0.772	0.86	0.527	0.816	0.617	–	–	–	–	0.839	0.857	0.855	0.98	0.941
LC-2-ad	0.465	0.429	0.552	0.505	0.977	0.982	0.933	0.921	0.971	0.808	0.831	0.857	0.909	0.816	0.665	0.352	0.666	0.664
LCLC-97TM1	0.212	0.186	0.296	0.231	–	–	0.864	1.28	0.82	0.222	0.202	0.305	0.234	0.467	0.458	0.481	0.352	0.212
LCLC-103H	0.546	0.412	0.468	0.411	–	–	–	–	–	0.714	0.717	0.717	0.756	0.744	0.773	0.752	0.848	0.809
LK-2	0.19	0.178	0.152	0.179	0.936	0.88	0.871	0.967	0.826	0.345	0.238	0.329	0.305	0.827	0.816	0.815	0.591	0.717
LOU-NH91	0.696	0.516	0.798	0.662	0.818	0.706	0.735	0.815	0.824	0.769	0.817	0.83	0.836	1	0.902	0.974	0.95	1.01
LU99A	0.279	0.238	0.297	0.226	1.05	0.898	1.12	0.992	1.09	0.96	0.896	1.02	0.719	0.267	0.237	0.241	0.26	0.134
LXF-289	0.206	0.182	0.198	0.157	0.967	0.879	0.935	0.914	0.959	0.346	0.398	0.403	0.403	1.13	1.03	1.1	1.15	1.04
NCI-H23	0.371	0.322	0.375	0.374	1.05	1.04	1.16	1.06	1.04	0.312	0.36	0.311	0.297	0.318	0.316	0.321	0.399	0.196
NCI-H322M	0.522	0.478	0.51	0.504	0.573	0.548	0.485	0.624	0.612	0.656	0.494	0.649	0.735	0.715	0.82	0.743	0.737	0.687
NCI-H441	0.496	0.689	0.631	0.585	–	–	–	–	–	0.264	0.23	0.22	0.257	0.604	0.538	0.643	0.564	0.602
NCI-H522	0.552	0.627	0.597	0.543	–	–	–	–	–	0.585	0.575	0.71	0.632	0.615	0.54	0.693	0.643	0.477
NCI-H1299	–	–	–	–	0.952	0.991	0.973	0.961	0.958	–	–	–	–	0.937	0.951	0.963	0.979	0.882
NCI-H1563	–	–	–	–	0.88	1.1	0.902	0.888	0.938	–	–	–	–	–	–	–	–	–
NCI-H1623	–	0.445	0.471	0.463	–	–	–	–	–	–	–	–	–	–	–	–	–	–
NCI-H1648	–	0.496	0.602	0.358	–	–	–	–	–	–	–	0.475	0.458	0.731	0.92	0.978	1.11	0.982
NCI-H1703	–	–	–	–	1.14	1.35	1.39	1.15	1.22	–	–	–	–	0.648	0.418	0.335	0.633	0.502
NCI-H1792	–	–	–	–	0.949	0.972	1.06	0.674	0.835	0.543	0.466	0.618	0.548	0.0016	0.469	0.532	0.582	0.68
NCI-H2228	0.208	0.349	0.202	0.253	1.45	0.99	1.2	1.12	1.1	–	–	–	–	0.813	0.635	0.711	0.567	0.647
NCI-H2342	0.496	0.564	0.5	0.456	–	–	–	–	–	0.742	0.717	0.756	0.843	0.477	0.367	0.376	0.377	0.344
SW 900	0.651	0.556	0.592	0.542	–	–	–	–	–	0.416	0.413	0.5	0.476	0.892	0.874	0.936	0.8	0.821
